Source: publication PMC11982978, “Cancer hotspot mutations rewire ERK2 specificity by selective exclusion of docking interactions” (The Journal of Biological Chemistry, 2025)
Like-named read-outs stand apart in the source and are kept apart here. Peptide text beside a SMILES is read from it.

Assays:
Type in all cases: biochemical
[1] = target: T1, ERK2 E322K (Mus musculus, UniProt P63085, E320K); experiment: Competitive peptide kinase assay (D-peptide inhibition), ERK2 E322K; conditions: 10 nM ERK2, 10 μM ATP
T1 construct: His6; made in house; host or cells: E. coli BL21(DE3), co-expressed with GST-MEK1ΔN3
T1 sequence (P63085 whole entry E320K): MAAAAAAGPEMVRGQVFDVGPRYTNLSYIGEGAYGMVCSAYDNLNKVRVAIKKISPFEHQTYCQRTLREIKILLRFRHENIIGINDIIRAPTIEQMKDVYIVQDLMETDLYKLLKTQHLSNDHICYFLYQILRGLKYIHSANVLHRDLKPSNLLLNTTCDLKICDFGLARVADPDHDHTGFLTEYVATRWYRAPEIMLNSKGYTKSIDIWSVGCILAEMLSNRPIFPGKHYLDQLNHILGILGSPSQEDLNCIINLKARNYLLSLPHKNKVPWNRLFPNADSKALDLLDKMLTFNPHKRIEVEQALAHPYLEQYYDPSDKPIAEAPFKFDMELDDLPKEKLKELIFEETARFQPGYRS
Protocol: (§1) We determined relative binding affinities for D-peptides from their potency as competitive inhibitors of WT or mutant ERK2 activity on a D-site-dependent reporter substrate peptide (Table S1, Fig. 3A, S3).
(§2) Competitive peptide kinase assays were performed with a D-site dependent MAPK reporter substrate peptide (AssayQuant Technologies Inc, #AQT0376) as we reported previously ([15]). Briefly, 5 μM of reporter peptide was mixed with various concentrations of D-peptides in reaction buffer (54 mM HEPES [pH 7.4], 1.2 mM DTT, 0.01% Brij-35, 1% glycerol, 0.2 mg/ml BSA, and 10 mM MgCl2). […] Phosphorylation of the reporter peptide was measured by fluorescence (λex 360 nm, λem 485 nm) in 90 s intervals over 21 min in a Spectra M5 plate reader. Rates were calculated from the linear portion of the reaction progress curve, and data were normalized to maximum (samples lacking competitor peptide) and minimum (control reactions lacking kinase) values. Normalized rates were plotted against D-peptide concentration and fitted into a sigmoidal dose-response curve to determine the IC50 values using GraphPad Prism (Version 9.3.0).

[2] = target: T2, ERK2 WT (Mus musculus, UniProt P63085); experiment: Competitive peptide kinase assay (D-peptide inhibition), ERK2 WT; conditions: 10 nM ERK2, 10 μM ATP
T2 construct: His6; made in house; host or cells: E. coli BL21(DE3), co-expressed with GST-MEK1ΔN3
T2 sequence (P63085 whole entry): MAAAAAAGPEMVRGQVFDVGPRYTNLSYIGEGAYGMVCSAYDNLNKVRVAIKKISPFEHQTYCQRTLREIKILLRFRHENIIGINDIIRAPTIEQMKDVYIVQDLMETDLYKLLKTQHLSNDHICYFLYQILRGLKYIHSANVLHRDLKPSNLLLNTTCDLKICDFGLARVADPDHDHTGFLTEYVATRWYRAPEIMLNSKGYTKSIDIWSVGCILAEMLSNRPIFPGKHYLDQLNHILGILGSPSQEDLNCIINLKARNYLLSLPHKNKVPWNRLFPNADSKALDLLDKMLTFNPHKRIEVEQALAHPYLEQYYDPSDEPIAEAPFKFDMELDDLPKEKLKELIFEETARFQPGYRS
Protocol: as §1, §2

[3] = target: T3, ERK2 D319N (Mus musculus, UniProt P63085, D319N); experiment: Competitive peptide kinase assay (D-peptide inhibition), ERK2 D319N; conditions: Table S1, 5 μM reporter peptide, 10 nM ERK2, 10 μM ATP, three independent experiments
T3 construct: His6; made in house; host or cells: E. coli BL21(DE3), co-expressed with GST-MEK1ΔN3
T3 sequence (P63085 whole entry D319N): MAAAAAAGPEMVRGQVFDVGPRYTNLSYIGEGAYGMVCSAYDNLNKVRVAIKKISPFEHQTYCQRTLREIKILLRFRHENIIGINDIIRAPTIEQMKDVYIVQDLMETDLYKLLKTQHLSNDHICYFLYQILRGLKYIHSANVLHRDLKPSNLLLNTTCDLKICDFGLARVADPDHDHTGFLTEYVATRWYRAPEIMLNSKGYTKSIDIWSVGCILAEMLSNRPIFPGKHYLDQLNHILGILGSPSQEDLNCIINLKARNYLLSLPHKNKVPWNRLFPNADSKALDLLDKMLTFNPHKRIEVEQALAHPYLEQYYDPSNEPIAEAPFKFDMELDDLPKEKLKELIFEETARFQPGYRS
Protocol: as §1, §2

[4] = target: T4, ERK2 R133K (Mus musculus, UniProt P63085, R133K); experiment: Competitive peptide kinase assay (D-peptide inhibition), ERK2 R133K; conditions: 10 nM ERK2, 10 μM ATP
T4 construct: His6; made in house; host or cells: E. coli BL21(DE3), co-expressed with GST-MEK1ΔN3
T4 sequence (P63085 whole entry R133K): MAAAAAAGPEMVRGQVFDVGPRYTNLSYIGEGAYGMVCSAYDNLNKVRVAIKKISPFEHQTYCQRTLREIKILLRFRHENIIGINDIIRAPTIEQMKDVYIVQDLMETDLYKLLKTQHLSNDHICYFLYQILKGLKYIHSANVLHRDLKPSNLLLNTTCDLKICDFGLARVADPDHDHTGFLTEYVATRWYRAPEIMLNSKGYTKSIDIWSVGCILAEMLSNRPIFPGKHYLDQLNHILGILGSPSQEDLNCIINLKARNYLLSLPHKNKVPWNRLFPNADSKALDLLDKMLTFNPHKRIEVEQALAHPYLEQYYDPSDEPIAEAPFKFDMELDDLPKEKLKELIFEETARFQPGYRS
Protocol: as §1, §2

[5] = Table S1, 5 μM reporter peptide, three independent experiments
[6] = Table 2, 5 μM reporter peptide, mean of three independent replicates, read-out: IC50, ERK2 E322 K
[7] = Table 2, 5 μM D-site dependent reporter peptide, pH 7.4, fluorescence, mean of three independent replicates

Row | Compound | IC50 [1, 5] | IC50 [2, 5] | IC50 [3] | IC50 [4, 5] | IC50 [1, 6] | IC50 [2, 7] | IC50 ([4]; Table 2, 5 μM reporter peptide, mean of three independent replicates, read-out: IC50, ERK2 R133 K)
1 | CSCC[C@H](NC(=O)[C@H](CC(C)C)NC(=O)[C@H](C)NC(=O)[C@@H](N)Cc1ccc(O)cc1)C(=O)N[C@@H](CCC(=O)O)C(=O)N[C@@H](CCCNC(=N)N)C(=O)N[C@@H](CCCNC(=N)N)C(=O)N[C@@H](CCCNC(=N)N)C(=O)N[C@@H](CC(C)C)C(=O)N[C@@H](CC(N)=O)C(=O)N[C@@H](CCC(N)=O)C(=O)N[C@@H](CC(C)C)C(=O)N[C@@H](CC(C)C)C(=O)N[C@@H](CC(C)C)C(=O)N1CCC[C@H]1C(=O)N[C@@H](CC(C)C)C(=O)O [ANAPC5] (H-YALMERRRLNQLLLPL-OH) | – | 32 µM | – | 340 µM | – | – | –
2 | CC(C)C[C@H](NC(=O)[C@H](C)NC(=O)[C@@H](N)Cc1ccc(O)cc1)C(=O)NCC(=O)N[C@@H](CO)C(=O)N[C@@H](CCCNC(=N)N)C(=O)N[C@@H](CCCNC(=N)N)C(=O)NCC(=O)N[C@@H](CCCNC(=N)N)C(=O)N[C@@H](CO)C(=O)N[C@@H](CO)C(=O)N[C@@H](CC(C)C)C(=O)N[C@@H](CO)C(=O)N[C@@H](CC(C)C)C(=O)N[C@@H](C)C(=O)N[C@@H](CCCCN)C(=O)O [ARHGEF2] | – | – | 300 µM | – | – | – | –
3 | CC(C)C[C@H](NC(=O)[C@H](CC(C)C)NC(=O)[C@H](CC(C)C)NC(=O)[C@H](CCCNC(=N)N)NC(=O)[C@H](CCCCN)NC(=O)[C@@H]1CCCN1C(=O)[C@H](CCCCN)NC(=O)[C@@H]1CCCN1C(=O)CNC(=O)[C@H](CCCNC(=N)N)NC(=O)[C@H](CCCCN)NC(=O)[C@H](CCCNC(=N)N)NC(=O)[C@H](C)NC(=O)[C@@H](N)Cc1ccc(O)cc1)C(=O)N[C@@H](CCC(N)=O)C(=O)N[C@@H](CCCNC(=N)N)C(=O)O [CBX7] (H-YARKRGPKPKRLLLQR-OH) | 14 µM | 5.1 µM | 9.8 µM | 5.7 µM | – | – | –
4 | CC[C@H](C)[C@H](NC(=O)[C@@H](NC(=O)[C@H](CCC(=O)O)NC(=O)[C@H](CCSC)NC(=O)[C@H](CCC(N)=O)NC(=O)[C@H](CCCNC(=N)N)NC(=O)[C@H](CCCNC(=N)N)NC(=O)[C@H](CC(N)=O)NC(=O)[C@H](CCCNC(=N)N)NC(=O)[C@H](CC(C)C)NC(=O)[C@H](C)NC(=O)[C@@H](N)Cc1ccc(O)cc1)C(C)C)C(=O)N[C@@H](CO)C(=O)N[C@@H](CC(C)C)C(=O)N[C@@H](CCCNC(=N)N)C(=O)N[C@@H](CC(C)C)C(=O)O [DISC1] (H-YALRNRRQMEVISLRL-OH) | 110 µM | 23 µM | 79 µM | 74 µM | – | – | –
5 | CC[C@H](C)[C@H](NC(=O)[C@H](CC(C)C)NC(=O)[C@@H]1CCCN1C(=O)[C@H](CCC(=O)O)NC(=O)[C@@H]1CCCN1C(=O)[C@H](CCCNC(=N)N)NC(=O)[C@@H]1CCCN1C(=O)[C@H](CCCNC(=N)N)NC(=O)[C@H](CCC(N)=O)NC(=O)[C@H](CCCCN)NC(=O)[C@@H]1CCCN1C(=O)[C@H](C)NC(=O)[C@@H](N)Cc1ccc(O)cc1)C(=O)N[C@H](C(=O)N1CCC[C@H]1C(=O)N[C@H](C(=O)O)[C@@H](C)O)[C@@H](C)CC [ELMSAN1] (H-YAPKQRPRPEPLIIPT-OH) | 40 µM | 24 µM | 30 µM | 27 µM | – | – | –
6 | CC[C@H](C)[C@H](NC(=O)[C@H](C)NC(=O)[C@@H](N)Cc1ccc(O)cc1)C(=O)NCC(=O)N[C@@H](CCCNC(=N)N)C(=O)N[C@@H](C)C(=O)N[C@@H](CCCNC(=N)N)C(=O)N[C@@H](CCCNC(=N)N)C(=O)NCC(=O)N[C@@H](CC(C)C)C(=O)N1CCC[C@H]1C(=O)N[C@@H](CCCNC(=N)N)C(=O)N[C@@H](CC(C)C)C(=O)N[C@@H](C)C(=O)N[C@H](C(=O)N[C@@H](CO)C(=O)N[C@@H](CC(=O)O)C(=O)O)C(C)C [ISG20 peptide G2+] (H-YAIGRARRGLPRLAVSD-OH) | – | – | – | – | 170 µM | 120 µM | –
7 | CC(C)C[C@H](NC(=O)CNC(=O)[C@H](CCCCN)NC(=O)[C@H](Cc1ccccc1)NC(=O)[C@H](CC(N)=O)NC(=O)[C@H](CCCCN)NC(=O)[C@H](Cc1c[nH]c2ccccc12)NC(=O)[C@H](CCCCN)NC(=O)[C@@H]1CCCN1C(=O)[C@H](CO)NC(=O)[C@H](C)NC(=O)[C@@H](N)Cc1ccc(O)cc1)C(=O)N[C@@H](CCCCN)C(=O)N[C@@H](CC(C)C)C(=O)N[C@@H](CC(C)C)C(=O)N[C@@H](CS)C(=O)O [MLXIPL] (H-YASPKWKNFKGLKLLC-OH) | 28 µM | 18 µM | 26 µM | 23 µM | – | – | –

More lines, now with the values ahead:

Row | IC50 [1, 5] | IC50 [2, 5] | IC50 [3] | IC50 [4, 5] | IC50 [1, 6] | IC50 [2, 7] | IC50 ([4]; Table 2, 5 μM reporter peptide, mean of three independent replicates, read-out: IC50, ERK2 R133 K) | Compound
8 | 160 µM | 16 µM | 120 µM | 110 µM | – | – | – | CC(C)C[C@H](NC(=O)[C@H](C)NC(=O)[C@@H](N)Cc1ccc(O)cc1)C(=O)N[C@@H](CCC(N)=O)C(=O)N[C@@H](CCC(N)=O)C(=O)N[C@@H](CCCNC(=N)N)C(=O)N[C@@H](CCCNC(=N)N)C(=O)N[C@@H](CC(C)C)C(=O)N[C@@H](CCC(N)=O)C(=O)N[C@@H](Cc1c[nH]cn1)C(=O)N[C@@H](CCCNC(=N)N)C(=O)N[C@@H](CC(C)C)C(=O)N[C@@H](CCCNC(=N)N)C(=O)N[C@@H](CC(C)C)C(=O)N[C@@H](CCCNC(=N)N)C(=O)N[C@@H](C)C(=O)O [AEBP1] (H-YALQQRRLQHRLRLRA-OH)
9 | 43 µM | 35 µM | 32 µM | 58 µM | – | – | – | CC(C)C[C@H](NC(=O)[C@H](CC(=O)O)NC(=O)[C@H](CCCNC(=N)N)NC(=O)[C@@H]1CCCN1C(=O)[C@H](CCCCN)NC(=O)[C@H](CCCNC(=N)N)NC(=O)CNC(=O)[C@H](CCCCN)NC(=O)[C@H](C)NC(=O)[C@@H](N)Cc1ccc(O)cc1)C(=O)N[C@@H](CCC(=O)O)C(=O)N[C@@H](CC(C)C)C(=O)N1CCC[C@H]1C(=O)N[C@@H](CC(C)C)C(=O)N[C@@H](CO)C(=O)N1CCC[C@H]1C(=O)O [ELK1] (H-YAKGRKPRDLELPLSP-OH)
10 | > 200 µM | 92 µM | > 200 µM | > 200 µM | – | – | – | CC(C)C[C@H](NC(=O)CNC(=O)[C@H](CCCNC(=N)N)NC(=O)[C@H](CCCNC(=N)N)NC(=O)[C@H](C)NC(=O)[C@H](CS)NC(=O)[C@H](CC(C)C)NC(=O)[C@H](C)NC(=O)[C@@H](N)Cc1ccc(O)cc1)C(=O)N[C@@H](Cc1ccc(O)cc1)C(=O)N[C@@H](CS)C(=O)N[C@@H](CC(C)C)C(=O)N[C@@H](CO)C(=O)N[C@@H](CC(C)C)C(=O)N[C@@H](CC(=O)O)C(=O)N[C@@H](Cc1c[nH]cn1)C(=O)O [FAAP100]
11 | – | – | – | – | 210 µM | 75 µM | 170 µM | CC[C@H](C)[C@H](NC(=O)[C@H](C)NC(=O)[C@@H](N)Cc1ccc(O)cc1)C(=O)N[C@@H](CCCNC(=N)N)C(=O)N[C@@H](C)C(=O)N[C@@H](CCCNC(=N)N)C(=O)N[C@@H](CCCNC(=N)N)C(=O)NCC(=O)NCC(=O)N[C@@H](CC(C)C)C(=O)N1CCC[C@H]1C(=O)N[C@@H](CCCNC(=N)N)C(=O)N[C@@H](CC(C)C)C(=O)N[C@@H](C)C(=O)N[C@H](C(=O)N[C@@H](CO)C(=O)N[C@@H](CC(=O)O)C(=O)O)C(C)C [ISG20 peptide G7+] (H-YAIRARRGGLPRLAVSD-OH)
12 | 41 µM | 23 µM | 23 µM | 29 µM | – | – | – | CC[C@H](C)[C@H](NC(=O)[C@@H](NC(=O)[C@H](CC(C)C)NC(=O)[C@H](C)NC(=O)[C@@H]1CCCN1C(=O)[C@H](CC(C)C)NC(=O)[C@@H](NC(=O)[C@@H]1CCCN1C(=O)[C@H](CCCCN)NC(=O)[C@H](CCCNC(=N)N)NC(=O)[C@H](CCCNC(=N)N)NC(=O)[C@H](C)NC(=O)[C@H](C)NC(=O)[C@@H](N)Cc1ccc(O)cc1)C(C)C)[C@@H](C)O)C(=O)N[C@@H](CC(N)=O)C(=O)N1CCC[C@H]1C(=O)O [MAP2K2] (H-YAARRKPVLPALTINP-OH)
13 | 600 µM | 42 µM | 600 µM | 760 µM | – | – | – | CC(C)C[C@H](NC(=O)[C@@H](NC(=O)[C@H](CC(C)C)NC(=O)[C@H](CO)NC(=O)[C@@H](NC(=O)[C@H](CC(N)=O)NC(=O)[C@H](CO)NC(=O)CNC(=O)[C@H](CCCNC(=N)N)NC(=O)[C@H](CCCNC(=N)N)NC(=O)[C@H](CCC(=O)O)NC(=O)[C@H](CCC(N)=O)NC(=O)[C@H](CC(C)C)NC(=O)CNC(=O)[C@H](C)NC(=O)[C@@H](N)Cc1ccc(O)cc1)C(C)C)[C@@H](C)O)C(=O)O [PTPN5] (H-YAGLQERRGSNVSLTL-OH)
14 | 56 µM | 6.8 µM | 23 µM | 6.2 µM | – | – | – | CC[C@H](C)[C@H](NC(=O)[C@H](C)NC(=O)[C@@H](N)Cc1ccc(O)cc1)C(=O)N[C@@H](CCCCN)C(=O)NCC(=O)N[C@@H](CCCCN)C(=O)N[C@@H](CCCNC(=N)N)C(=O)N[C@@H](CCCNC(=N)N)C(=O)N[C@@H](CCCNC(=N)N)C(=O)N[C@@H](CCCCN)C(=O)N[C@@H](CCCCN)C(=O)N[C@@H](CC(C)C)C(=O)N[C@H](C(=O)N[C@@H](CC(C)C)C(=O)N[C@@H](C)C(=O)N[C@@H](CCCCN)C(=O)O)[C@@H](C)CC [ZBED6] (H-YAIKGKRRRKKLILAK-OH)
